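Five compound concentrations were applied to cells in 96-well plates for 48 hours; endpoints were derived by simple linear interpolation of the resulting dose-response curve. At the GI50, growth is halved. The concentration for full growth arrest is given as TGI.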
Experiments:
Test in all cases: growth of human tumour cells (NCI), 48 h
[1] = system: HT29 colon
[2] = system: OVCAR-5 ovarian
[3] = system: HCC-2998 colon
[4] = system: SNB-75 CNS
[5] = system: U251 CNS
[6] = system: NCI-H23 lung
[7] = system: SR leukemia
[8] = system: RPMI-8226 leukemia
[9] = system: SN12C renal
[10] = system: HOP-62 NSCLC
[11] = system: SF-268 CNS
[12] = system: ACHN renal
[13] = system: MCF7 breast
[14] = system: UACC-257 melanoma
[15] = system: MOLT-4 leukemia
[16] = system: PC-3 prostate
[17] = system: NCI-H460 lung
[18] = system: OVCAR-3 ovarian
[19] = system: EKVX NSCLC
[20] = system: TK-10 renal
[21] = system: OVCAR-8 ovarian
[22] = system: HCT-15 colon
[23] = system: HCT-116 colon
[24] = system: K-562 leukemia
[25] = system: HL-60(TB) leukemia
[26] = system: SF-539 CNS
[27] = system: KM12 colon
[28] = system: MALME-3M melanoma
[29] = system: NCI-H522 lung
[30] = system: NCI-H226 lung
[31] = system: 786-0 renal
[32] = system: SK-MEL-28 melanoma
[33] = system: SK-MEL-2 melanoma
[34] = system: HS 578T breast
[35] = system: SF-295 CNS
[36] = system: CCRF-CEM leukemia
[37] = system: UACC-62 melanoma
[38] = system: BT-549 breast
[39] = system: M14 melanoma
[40] = system: CAKI-1 renal
[41] = system: MDA-MB-435
[42] = system: LOX IMVI melanoma
[43] = system: RXF 393 renal
[44] = system: IGROV1 ovarian
[45] = system: SW-620 colon
[46] = system: SK-MEL-5 melanoma
[47] = system: A549 NSCLC
[48] = system: NCI/ADR-RES ovarian
[49] = system: MDA-MB-231 breast
[50] = system: T-47D breast
[51] = system: A498 renal
[52] = system: UO-31 renal
[53] = system: COLO 205 colon
[54] = system: HOP-92 NSCLC
[55] = system: DU-145 prostate
[56] = system: OVCAR-4 ovarian
[57] = system: SNB-19 CNS
[58] = system: SK-OV-3 ovarian

## O=C(NCCCn1ccnc1[N+](=O)[O-])C(=O)NCCCn1ccnc1[N+](=O)[O-]
[1]
  TGI: > 100000 nM
[2]
  TGI: > 100000 nM
[3]
  TGI: > 100000 nM
[4]
  TGI: > 100000 nM
[5]
  TGI: > 100000 nM
[6]
  TGI: > 100000 nM
[7]
  TGI: > 100000 nM
[8]
  TGI: > 100000 nM
[9]
  TGI: > 100000 nM
[10]
  TGI: > 100000 nM
[11]
  TGI: > 100000 nM
[12]
  TGI: > 100000 nM
[13]
  TGI: > 100000 nM
[14]
  TGI: > 100000 nM
[15]
  TGI: > 100000 nM
[16]
  TGI: > 100000 nM
[17]
  TGI: > 100000 nM
[18]
  TGI: > 100000 nM
[19]
  TGI: > 100000 nM
[20]
  TGI: > 100000 nM
[21]
  TGI: > 100000 nM
[22]
  TGI: > 100000 nM
[23]
  TGI: > 100000 nM
[24]
  TGI: > 100000 nM
[25]
  TGI: > 100000 nM
[26]
  TGI: > 100000 nM
[27]
  TGI: > 100000 nM
[28]
  TGI: > 100000 nM
[29]
  TGI: > 100000 nM
[30]
  TGI: > 100000 nM
[31]
  TGI: > 100000 nM
[32]
  TGI: > 100000 nM
[33]
  TGI: > 100000 nM
[34]
  TGI: > 100000 nM
[35]
  TGI: > 100000 nM
[36]
  TGI: > 100000 nM

## CN1CCN(CCCOc2ccc3ncnc(Nc4ccc(Oc5cccc(F)c5)c(Cl)c4)c3c2)CC1
[1]
  GI50: 1550 nM
  TGI: 4110 nM
[2]
  GI50: 1670 nM
  TGI: 3290 nM
[3]
  GI50: 1640 nM
  TGI: 3060 nM
[37]
  GI50: 1750 nM
  TGI: 3270 nM
[4]
  GI50: 1400 nM
  TGI: 2750 nM
[38]
  GI50: 1700 nM
  TGI: 3300 nM
[5]
  GI50: 1560 nM
  TGI: 3290 nM
[39]
  GI50: 1790 nM
  TGI: 3620 nM
[6]
  GI50: 1480 nM
  TGI: 3020 nM
[8]
  GI50: 1580 nM
  TGI: 4860 nM
[9]
  GI50: 1390 nM
  TGI: 2740 nM
[10]
  GI50: 1750 nM
  TGI: 3760 nM
[40]
  GI50: 1520 nM
  TGI: 3100 nM
[11]
  GI50: 1470 nM
  TGI: 3140 nM
[12]
  GI50: 1020 nM
  TGI: 2190 nM
[13]
  GI50: 1570 nM
  TGI: 3310 nM
[41]
  GI50: 1670 nM
  TGI: 3190 nM
[14]
  GI50: 1960 nM
  TGI: 4060 nM
[42]
  GI50: 1700 nM
  TGI: 3100 nM
[15]
  GI50: 1760 nM
  TGI: 4350 nM
[43]
  GI50: 1560 nM
  TGI: 3100 nM
[44]
  GI50: 711 nM
  TGI: 2230 nM
[16]
  GI50: 1680 nM
  TGI: 3450 nM
[17]
  GI50: 1770 nM
  TGI: 3300 nM
[18]
  GI50: 1610 nM
  TGI: 3740 nM
[19]
  GI50: 1310 nM
  TGI: 3560 nM
[20]
  GI50: 1050 nM
  TGI: 2320 nM
[45]
  GI50: 1680 nM
  TGI: 3250 nM
[21]
  GI50: 2190 nM
  TGI: 6420 nM
[46]
  GI50: 1620 nM
  TGI: 3010 nM
[22]
  GI50: 1270 nM
  TGI: 2920 nM
[47]
  GI50: 1560 nM
  TGI: 3240 nM
[23]
  GI50: 1510 nM
  TGI: 2860 nM
[24]
  GI50: 1190 nM
  TGI: 4340 nM
[25]
  GI50: 2050 nM
  TGI: 4170 nM
[48]
  GI50: 1830 nM
  TGI: 4790 nM
[49]
  GI50: 1700 nM
  TGI: 3160 nM
[26]
  GI50: 1540 nM
  TGI: 2930 nM
[50]
  GI50: 1340 nM
  TGI: 4350 nM
[27]
  GI50: 1810 nM
  TGI: 3390 nM
[28]
  GI50: 1560 nM
  TGI: 3050 nM
[51]
  GI50: 1250 nM
  TGI: 2740 nM
[29]
  GI50: 1230 nM
  TGI: 3140 nM
[52]
  GI50: 1110 nM
  TGI: 2300 nM
[31]
  GI50: 1610 nM
  TGI: 3000 nM
[32]
  GI50: 1700 nM
  TGI: 3110 nM
[33]
  GI50: 1950 nM
  TGI: 4040 nM
[53]
  GI50: 1860 nM
  TGI: 3640 nM
[34]
  GI50: 1760 nM
  TGI: 4260 nM
[54]
  GI50: 907 nM
  TGI: 2260 nM
[55]
  GI50: 1310 nM
  TGI: 2790 nM
[56]
  GI50: 1620 nM
  TGI: 3600 nM
[35]
  GI50: 1800 nM
  TGI: 3250 nM
[36]
  GI50: 1970 nM
  TGI: 8210 nM
[57]
  GI50: 1640 nM
  TGI: 3160 nM

## CCc1ccc(OCc2ccccc2C(=O)Nc2ccc3nc(C)cc(N)c3c2)cc1
[2]
  GI50: 1620 nM
  TGI: 3140 nM
[3]
  GI50: 1640 nM
  TGI: 3240 nM
[37]
  GI50: 1600 nM
  TGI: 3020 nM
[4]
  GI50: 1280 nM
  TGI: 2590 nM
[9]
  GI50: 1510 nM
  TGI: 3020 nM
[10]
  GI50: 1770 nM
  TGI: 3310 nM
[58]
  GI50: 1640 nM
  TGI: 3000 nM
[12]
  GI50: 1730 nM
  TGI: 3130 nM
[41]
  GI50: 1430 nM
  TGI: 2770 nM
[14]
  GI50: 1830 nM
  TGI: 3370 nM
[43]
  GI50: 1320 nM
  TGI: 2750 nM
[16]
  GI50: 1520 nM
  TGI: 2930 nM
[18]
  GI50: 1620 nM
  TGI: 3040 nM
[20]
  GI50: 1680 nM
  TGI: 3170 nM
[21]
  GI50: 1680 nM
  TGI: 4610 nM
[46]
  GI50: 1540 nM
  TGI: 2910 nM
[47]
  GI50: 1560 nM
  TGI: 3270 nM
[48]
  GI50: 1750 nM
  TGI: 4200 nM
[49]
  GI50: 846 nM
  TGI: 2250 nM
[26]
  GI50: 1590 nM
  TGI: 3040 nM
[28]
  GI50: 1740 nM
  TGI: 3350 nM
[51]
  GI50: 1500 nM
  TGI: 3000 nM
[52]
  GI50: 1440 nM
  TGI: 2840 nM
[32]
  GI50: 1750 nM
  TGI: 3290 nM
[33]
  GI50: 1790 nM
  TGI: 3390 nM
[53]
  GI50: 240 nM
  TGI: 692 nM
[34]
  GI50: 1790 nM
  TGI: 4380 nM
[54]
  GI50: 1160 nM
  TGI: 2550 nM
[55]
  GI50: 1680 nM
  TGI: 3170 nM
[35]
  GI50: 1650 nM
  TGI: 3130 nM

Reference: PubChem BioAssay (NCI)
